# What was measured:
# Format in all cases: in vivo
# Diabrotica balteata [1] = test: Diabrotica balteata (corn root worm) larval test on artificial diet; settings: 120 h, read-out: Control/% Diabrotica balteata Corn rootworm; for pest or weed control at 3 ppm: application rate 3 ppm; for pest or weed control at 12 ppm: application rate 12 ppm; for pest or weed control at 50 ppm: application rate 50 ppm
# Plutella xylostella [2] = test: Plutella xylostella (diamond back moth) larval test on artificial diet; settings: 144 h; for pest or weed control at 0.8 ppm: application rate 0.8 ppm; for pest or weed control at 3 ppm: application rate 3 ppm
# Heliothis virescens [3] = test: Heliothis virescens (tobacco budworm) egg/larval test on artificial diet; settings: 96 h; for pest or weed control at 0.8 ppm: application rate 0.8 ppm; for pest or weed control at 3 ppm: application rate 3 ppm
# Spodoptera littoralis = Spodoptera littoralis (Egyptian cotton leafworm) leaf disc test; settings: foliar, 72 h, application rate 200 ppm, cotton leaf discs, L1 larvae, mortality, feeding behavior, growth regulation 3 DAT
# Source text: Spodoptera littoralis (Egyptian Cotton Leafworm): Cotton leaf discs were placed on agar in a 24-well microtiter plate and sprayed with test solutions at an application rate of 200 ppm. After drying, the leaf discs were infested with 5 L1 larvae. The samples were checked for mortality, feeding behavior, and growth regulation 3 days after treatment (DAT).
# Heliothis virescens [4] = test: Heliothis virescens (tobacco budworm) egg/larval test on artificial diet; settings: 96 h, application rate 200 ppm (concentration in well 18 ppm), eggs on artificial diet, 4 days
# Description: Eggs (0-24 h old) were placed in 24-well microtiter plate on artificial diet and treated with test solutions at an application rate of 200 ppm (concentration in well 18 ppm) by pipetting. After an incubation period of 4 days, samples were checked for egg mortality, larval mortality, and growth regulation.
# Thrips tabaci = Thrips tabaci (onion thrips) leaf disc test; settings: foliar, 168 h, application rate 200 ppm, sunflower leaf discs, 7 days
# Description: Sunflower leaf discs were placed on agar in a 24-well microtiter plate and sprayed with test solutions at an application rate of 200 ppm. After drying, the leaf discs were infested with a thrips population of mixed ages. After an incubation period of 7 days, samples were checked for mortality.
# Plutella xylostella [5] = test: Plutella xylostella (diamond back moth) larval test on artificial diet; settings: 144 h, application rate 200 ppm (concentration in well 18 ppm), L2 larvae on artificial diet, 6 days
# Description: (§1) 24-well microtiter plate (MTP) with artificial diet was treated with test solutions at an application rate of 200 ppm (concentration in well 18 ppm) by pipetting. After drying, the MTP's were infested with L2 larvae (7-12 per well). After an incubation period of 6 days, samples were checked for larval mortality and growth regulation.
# Diabrotica balteata [6] = test: Diabrotica balteata (corn root worm) larval test on artificial diet; settings: 120 h, application rate 200 ppm (concentration in well 18 ppm), L2 larvae on artificial diet, 5 days
# Description: as §1, with “Diabrotica balteata (Corn Root Worm): A 24-well” for “24-well”, “(6-10” for “(7-12”, “5” for “6”
# Myzus persicae = Myzus persicae (green peach aphid), systemic test; settings: 144 h, application rate 12.5 ppm, roots of pea seedlings in test solution, 6 days
# Source text: Myzus persicae (Green peach aphid), systemic test: Roots of pea seedlings, infested with an aphid population of mixed ages, are placed directly in the test solutions at an application rate of 12.5 ppm. 6 days after introduction, samples are checked for mortality and special effects on the plant. The following compounds gave at least 80% control of Myzus persicae: […]
# Tetranychus urticae = Tetranychus urticae (two-spotted spider mite) leaf disc test; settings: foliar, 192 h, application rate 200 ppm, bean leaf discs, 8 days
# Source text: Bean leaf discs on agar in 24-well microtiter plates were sprayed with test solutions at an application rate of 200 ppm. After drying, the leaf discs are infested with mite populations of mixed ages. 8 days later, discs are checked for egg mortality, larval mortality, and adult mortality.
Compound,pest or weed control at 3 ppm (Diabrotica balteata [1]) [%],pest or weed control at 12 ppm (Diabrotica balteata [1]) [%],pest or weed control at 0.8 ppm (Plutella xylostella [2]) [%],pest or weed control at 3 ppm (Plutella xylostella [2]) [%],pest or weed control at 0.8 ppm (Heliothis virescens [3]) [%],pest or weed control at 3 ppm (Heliothis virescens [3]) [%],pest or weed control at 50 ppm (Diabrotica balteata [1]) [%],pest or weed control at 0.8 ppm (Diabrotica balteata [1]; application rate 0.8 ppm) [%],pest or weed control at 0.2 ppm (Plutella xylostella [2]; application rate 0.2 ppm) [%],pest or weed control at 0.2 ppm (Heliothis virescens [3]; application rate 0.2 ppm) [%],pest or weed control at 200 ppm (Spodoptera littoralis) [%],pest or weed control at 200 ppm (Heliothis virescens [4]) [%],pest or weed control at 200 ppm (Thrips tabaci) [%],pest or weed control at 200 ppm (Plutella xylostella [5]) [%],pest or weed control at 200 ppm (Diabrotica balteata [6]) [%],pest or weed control at 12.5 ppm (Myzus persicae) [%],pest or weed control at 200 ppm (Tetranychus urticae) [%]
Cc1cc(C2=NOC(c3cc(Cl)cc(Cl)c3)(C(F)(F)F)C2)ccc1[S+](C)[O-] (stereo not shown),0,0,0,0,0,0,–,–,–,–,–,–,–,–,–,–,–
CSc1ccc(C2=NOC(c3cc(Cl)cc(Cl)c3)(C(F)(F)F)C2)cc1C (stereo not shown) [Compound 1-020],–,20,0,0,0,0,–,–,–,–,–,–,–,–,–,–,–
Cc1cc(C2=NOC(c3cc(Cl)cc(Cl)c3)(C(F)(F)F)C2)ccc1S(C)(=O)=O (stereo not shown) [Compound 1-021],–,0,0,0,0,0,90,–,–,–,–,–,–,–,–,–,–
O=C(CSc1ccc(C2=NOC(c3cc(Cl)cc(Cl)c3)(C(F)(F)F)C2)cc1)NCC(F)(F)F (stereo not shown) [Compound 1-028],20,100,0,50,0,90,–,0,0,0,–,–,–,–,–,–,–
O=C(C[S+]([O-])c1ccc(C2=NOC(c3cc(Cl)cc(Cl)c3)(C(F)(F)F)C2)cc1)NCC(F)(F)F (stereo not shown) [Compound 1-029],–,50,0,80,0,80,100,–,–,–,–,–,–,–,–,–,–
O=C(CS(=O)(=O)c1ccc(C2=NOC(c3cc(Cl)cc(Cl)c3)(C(F)(F)F)C2)cc1)NCC(F)(F)F (stereo not shown) [Compound 1-030],–,50,0,0,0,80,100,–,–,–,–,–,–,–,–,–,–
"O=C(CSc1ccc(C2=NO[C@@](c3cc(Cl)cc(Cl)c3)(C(F)(F)F)C2)cc1F)NCC(F)(F)F [Compound C63, 2-[4-[(5S)-5-(3,5-dichlorophenyl)-5-(trifluoromethyl)-4H-isoxazol-3-yl]-2-fluoro-phenyl]sulfanyl-N-(2,2,2-trifluoroethyl)acetamide]",–,–,–,–,–,–,–,–,–,–,≥ 80,≥ 80,≥ 80,≥ 80,≥ 80,≥ 80,≥ 80
"O=C(C[S+]([O-])c1ccc(C2=NO[C@@](c3cc(Cl)cc(Cl)c3)(C(F)(F)F)C2)cc1F)NCC(F)(F)F (stereo partly drawn) [Compound C64, 2-[4-[(5S)-5-(3,5-dichlorophenyl)-5-(trifluoromethyl)-4H-isoxazol-3-yl]-2-fluoro-phenyl]sulfinyl-N-(2,2,2-trifluoroethyl)acetamide]",–,–,–,–,–,–,–,–,–,–,≥ 80,≥ 80,≥ 80,≥ 80,≥ 80,≥ 80,≥ 80
"O=C(CSc1ccc(C2=NO[C@@](c3cc(Cl)c(Cl)c(Cl)c3)(C(F)(F)F)C2)cc1Cl)NCC(F)(F)F [Compound D1, 2-[2-chloro-4-[(5S)-5-(3,4,5-trichlorophenyl)-5-(trifluoromethyl)-4H-isoxazol-3-yl]phenyl]sulfanyl-N-(2,2,2-trifluoroethyl)acetamide]",–,–,–,–,–,–,–,–,–,–,≥ 80,≥ 80,≥ 80,≥ 80,≥ 80,≥ 80,≥ 80
"O=C(C[S+]([O-])c1ccc(C2=NO[C@@](c3cc(Cl)c(Cl)c(Cl)c3)(C(F)(F)F)C2)cc1Cl)NCC(F)(F)F (stereo partly drawn) [Compound D2, 2-[2-chloro-4-[(5S)-5-(3,4,5-trichlorophenyl)-5-(trifluoromethyl)-4H-isoxazol-3-yl]phenyl]sulfinyl-N-(2,2,2-trifluoroethyl)acetamide]",–,–,–,–,–,–,–,–,–,–,≥ 80,≥ 80,≥ 80,≥ 80,≥ 80,≥ 80,≥ 80
"O=C(CS(=O)(=O)c1ccc(C2=NO[C@@](c3cc(Cl)c(Cl)c(Cl)c3)(C(F)(F)F)C2)cc1Cl)NCC(F)(F)F [Compound D3, 2-[2-chloro-4-[(5S)-5-(3,4,5-trichlorophenyl)-5-(trifluoromethyl)-4H-isoxazol-3-yl]phenyl]sulfonyl-N-(2,2,2-trifluoroethyl)acetamide]",–,–,–,–,–,–,–,–,–,–,≥ 80,≥ 80,≥ 80,≥ 80,≥ 80,≥ 80,≥ 80
"O=C(CSc1ccc(C2=NO[C@@](c3cc(Cl)c(Cl)c(Cl)c3)(C(F)(F)F)C2)cc1Cl)NC1CC1 [Compound D4, 2-[2-chloro-4-[(5S)-5-(3,4,5-trichlorophenyl)-5-(trifluoromethyl)-4H-isoxazol-3-yl]phenyl]sulfanyl-N-cyclopropyl-acetamide]",–,–,–,–,–,–,–,–,–,–,≥ 80,≥ 80,≥ 80,≥ 80,≥ 80,≥ 80,≥ 80
"O=C(CSc1ccc(C2=NOC(c3cc(Cl)cc(Cl)c3)(C(F)(F)F)C2)c2ccccc12)NCC(F)(F)F (stereo not shown) [Compound G1, 2-[[4-[5-(3,5-dichlorophenyl)-5-(trifluoromethyl)-4H-isoxazol-3-yl]-1-naphthyl]sulfanyl]-N-(2,2,2-trifluoroethyl)acetamide]",–,–,–,–,–,–,–,–,–,–,≥ 80,≥ 80,≥ 80,≥ 80,≥ 80,≥ 80,≥ 80
"O=C(CSc1ccc(C2=NO[C@@](c3cc(Cl)cc(Cl)c3)(C(F)(F)F)C2)c2ccccc12)NCC(F)(F)F [Compound G2, 2-[[4-[5-(S)-(3,5-dichlorophenyl)-5-(trifluoromethyl)-4H-isoxazol-3-yl]-1-naphthyl]sulfanyl]-N-(2,2,2-trifluoroethyl)acetamide]",–,–,–,–,–,–,–,–,–,–,≥ 80,≥ 80,≥ 80,≥ 80,≥ 80,≥ 80,≥ 80
